From patent publication US10681909B2, “Herbicidal triazoles” (FMC Corporation, priority 2014, dated 2020)

Key:
pigweed = experiment: Test A preemergence; type: in vivo, Amaranthus retroflexus; details: Amaranthus retroflexus, pre-emergence, 240 h, 0 to 100 scale (0 no effect, 100 complete control), read-out: Plant response rating, Pigweed; for pest or weed control at 125 g/ha: 125 g ai/ha; for pest or weed control at 500 g/ha: 500 g ai/ha, approx. 10 d
Summary of the method: (§1)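 Test chemicals, formulated in a surfactant-containing non-phytotoxic solvent mixture, are applied either as a directed soil spray to newly planted seeds or as a postemergence application to plants at the one- to two-leaf stage (2–10 cm). All plants grow in a loam soil and sand blend.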

corn = experiment: Test A postemergence; type: in vivo, Zea mays; details: Zea mays, post-emergence, 240 h, 0 to 100 scale (0 no effect, 100 complete control), approx. 10 d; for Corn plant response rating (crop injury, 0 = no effect, 100 = complete kill) at 125 g/ha: 125 g ai/ha; for Corn plant response rating (crop injury, 0 = no effect, 100 = complete kill) at 500 g/ha: 500 g ai/ha
Summary of the method: as §1

ducksalad = experiment: Test B flooded paddy test; type: in vivo, Heteranthera limosa; details: Heteranthera limosa, 360 h, 125 g ai/ha, applied to paddy water at 2-leaf stage, visual rating after 13 to 15 d, scale 0 (no effect) to 100 (complete control), read-out: Plant response rating, Ducksalad, Flood
Summary of the method: (§2)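 Pots were flooded to 3 cm above the soil at treatment, and compounds were applied directly into the paddy water. That depth was held throughout. After 13 to 15 d in a greenhouse, plants were rated visually against untreated controls.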

rice = experiment: Test B flooded paddy test; type: in vivo, Oryza sativa; details: Oryza sativa, 360 h, 125 g ai/ha, applied to paddy water at 2-leaf stage, visual rating after 13 to 15 d, scale 0 (no effect) to 100 (complete control), read-out: Plant response rating, Rice, Flood
Summary of the method: as §2

barnyardgrass = experiment: Test A postemergence; type: in vivo, Echinochloa crus-galli; details: Echinochloa crus-galli, post-emergence, 240 h, 0 to 100 scale (0 no effect, 100 complete control), approx. 10 d, read-out: Plant response rating, Barnyardgrass; for pest or weed control at 125 g/ha: 125 g ai/ha; for pest or weed control at 500 g/ha: 500 g ai/ha
Summary of the method: as §1

foxtail, giant = experiment: Test A postemergence; type: in vivo, Setaria faberii; details: Setaria faberi, post-emergence, 240 h, 0 to 100 scale (0 no effect, 100 complete control), approx. 10 d, read-out: Plant response rating, Foxtail, Giant; for pest or weed control at 125 g/ha: 125 g ai/ha; for pest or weed control at 500 g/ha: 500 g ai/ha
Summary of the method: as §1

Structure (SMILES)	pest or weed control at 125 g/ha (pigweed) [%]	pest or weed control at 500 g/ha (pigweed) [%]	Corn plant response rating (crop injury, 0 = no effect, 100 = complete kill) at 125 g/ha (corn) [%]	Corn plant response rating (crop injury, 0 = no effect, 100 = complete kill) at 500 g/ha (corn) [%]	pest or weed control at 125 g/ha (ducksalad) [%]	plant injury at 125 g/ha (rice) [%]	pest or weed control at 125 g/ha (barnyardgrass) [%]	pest or weed control at 500 g/ha (barnyardgrass) [%]	pest or weed control at 125 g/ha (foxtail, giant) [%]	pest or weed control at 500 g/ha (foxtail, giant) [%]
CCn1nc(-c2ccc(F)cc2)nc1C(=O)c1ccnc(C(F)(F)F)c1 [Compound 19, [1-ethyl-3-(4-fluorophenyl)-1H-1,2,4-triazol-5-yl][2-(trifluoromethyl)-4-pyridinyl]methanone]	0	0	0	20	0	0	0	0	0	0
CCn1nc(-c2ccc(F)cc2)nc1C(O)c1ccnc(C(F)(F)F)c1 (stereo not drawn) [Compound 15, α-[1-Ethyl-3-(4-fluorophenyl)-1H-1,2,4-triazol-5-yl]-2-(trifluoromethyl)-4-pyridinemethanol]	0	0	0	10	0	0	0	10	0	10
